Assay results published in article PMC11649784, “Re-design and evaluation of diclofenac-based carborane-substituted prodrugs and their anti-cancer potential” (Scientific Reports, 2024).

Assays:
HT29 cells [1] = assay: Crystal violet (CV) viability assay, HT29; type: cell-based, human; conditions: 72 h, mean±SD, read-out: IC50 [μM] (n = 3) HT29 CV
Protocol: (§1) In a preliminary test, the stability of all compounds dissolved in the cell medium (c = 100 μM, T = [drawing 47] ) for 72 h was validated by HPLC (see Supporting Information). Cell lines were incubated with the respective compounds in a concentration range of 1.56–100 μM for 72 h, and cell viability was measured using 3-(4,5-dimethylthiazol-2-yl)-2,5-diphenyltetrazolium bromide (MTT) and crystal violet (CV) assays. […] As MTT tests gave inconsistent results, possibly due to interference of the compound with mitochondrial respiration, for the further evaluation only the CV results are considered[97],[98].
(§2) The biological study was performed on a murine colon adenocarcinoma cell line (MC38), two human colorectal carcinoma cell lines (HCT116 and HT29), and a human fetal lung fibroblast cell line (MRC-5). All cell lines are commercially available and were obtained from the American Type Culture Collection (ATCC). The human cell lines were kept in HEPES-buffered RPMI-1640 medium supplemented with 10 [drawing 141] heat-inactivated FCS, 2 mM L-glutamine, 0.01 [drawing 142] sodium pyruvate, penicillin (100 units mL^−1), and, streptomycin ( [drawing 143] mL^-1). The MC38 cell line was maintained in DMEM medium additionally supplemented with 1 [drawing 144] non-essential amino acids. Cells were grown at [drawing 145] in a humidified atmosphere with 5 [drawing 146] [drawing 147] . Peritoneal exudate cells (PECs) were isolated from healthy C57BL/6 mice (males, n = 3, 3 months old, weight 22–25 g) by performing an ice-cold PBS peritoneal lavage. Mice were sacrificed by cervical dislocation. Cells were cultivated for 4 h when nonadherent population was removed by washing in PBS, and additionally cultivated overnight in HEPES-buffered RPMI-1640 medium supplemented with 5 [drawing 148] heat-inactivated FCS before treatment with experimental drugs. Animal handling and protocol for isolation of PECs were performed according to European Union rules, and the ARRIVE guidelines 2.0.
(§3) For the viability tests, MC38, HCT116, and HT29 cells were seeded in 96-well plates at a density of 2 [drawing 149] 103, 5 [drawing 150] 103, and 6 [drawing 151] 10^3 cells/well, respectively. To determine whether the drug affected the viability of healthy, non-malignant cells, MRC-5 and PECs were seeded in 96-well plates at a density of 8 [drawing 152] 103 and 2 [drawing 153] 10^5 cells/well, respectively. For the flow cytometric analyses, MC38 cells were seeded in 6-well plates at 5 [drawing 154] 10^4 cells/well. For morphological assessment of nuclei and the detection of autophagy, MC38 cells were seeded in 2-well chamber slides at 1.5 [drawing 155] 10^4 cells/well.
(§4) After 72 h, cell viability was determined using MTT and CV tests. First, the supernatant from the wells was discarded and the cells were incubated with an MTT solution (0.5 mg mL^−1). After half an hour, the purple formazan crystals formed were dissolved in DMSO. For CV staining of the cells, the cells were fixed with 4 [drawing 157] PFA for 10 min and then stained with a 0.02 [drawing 158] CV solution for 15 min, all at room temperature (RT). The cells were then washed with tap water, air-dried and the dye was dissolved in 33 [drawing 159] acetic acid. For both viability tests, the absorbance of the developed colors was measured using an automated microplate reader at 570 nm with a reference wavelength of 670 nm. The results were expressed as a percentage of the control values of the untreated cells, which were arbitrarily set at 100 [drawing 160] . IC50 values, defined as 50 [drawing 161] inhibitory concentration, were calculated using a four-parameter logistic function and presented as mean±SD. All biological experiments were performed in triplicates. To evaluate the nature of the detected autophagy, a combined treatment with compound 3 and the autophagy inhibitors chloroquine (Chlq) and 3-methyladenine (3-MA) was carried out. […] After 72 h, cell viability was determined by CV assay.

HCT116 cells [2] = assay: MTT viability assay, HCT116; type: cell-based, human; conditions: 72 h, mean±SD, read-out: IC50 [μM] (n = 3) HCT116 MTT
Protocol: as §1, §2, §3, §4

MC38, HCT116, and HT29 = assay: Viability assays, summary over the three cancer cell lines; type: cell-based; conditions: 72 h; for effect on cell viability: concentrations up to 100 μM
Protocol: as §1, §4

MC38 cells [3] = assay: Crystal violet (CV) viability assay, MC38; type: cell-based, murine; conditions: 72 h, mean±SD, read-out: IC50 [μM] (n = 3) MC38 CV
Protocol: as §1, §2, §3, §4

human recombinant COX-2 = target: T1, human recombinant COX-2 (Homo sapiens, UniProt P35354); assay: COX Fluorescent Inhibitor Screening Assay, COX-2; type: biochemical; conditions: for COX inhibition, in words: in vitro COX assay, COX-1 and COX-2
T1 construct: purchased Cayman Chemical Company, Ann Arbor, MI, USA
T1 sequence (P35354 18-604): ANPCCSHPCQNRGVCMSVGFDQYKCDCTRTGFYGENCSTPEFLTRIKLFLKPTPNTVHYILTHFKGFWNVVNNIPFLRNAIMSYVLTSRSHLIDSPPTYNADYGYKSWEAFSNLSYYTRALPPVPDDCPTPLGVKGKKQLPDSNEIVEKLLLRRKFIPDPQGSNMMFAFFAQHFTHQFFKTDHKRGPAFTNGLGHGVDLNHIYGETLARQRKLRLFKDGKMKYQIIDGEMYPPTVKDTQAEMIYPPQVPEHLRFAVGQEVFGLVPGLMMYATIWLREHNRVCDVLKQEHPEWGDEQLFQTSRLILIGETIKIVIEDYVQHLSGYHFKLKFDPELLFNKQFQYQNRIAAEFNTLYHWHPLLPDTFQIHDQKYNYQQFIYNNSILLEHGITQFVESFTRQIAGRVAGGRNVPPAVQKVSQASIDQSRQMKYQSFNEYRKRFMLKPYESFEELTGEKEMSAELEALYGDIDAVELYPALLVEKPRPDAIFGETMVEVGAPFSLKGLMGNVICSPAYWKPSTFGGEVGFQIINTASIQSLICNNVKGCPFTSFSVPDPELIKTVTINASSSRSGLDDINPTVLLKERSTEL
Protocol: The COX inhibition activity against ovine COX-1 and human recombinant COX-2 was determined using the COX Fluorescent Inhibitor Screening Assay Kit (Cayman Chemical Company, Ann Arbor, MI, USA) according to the manufacturer’s instructions as reported.

HT29 cells [4] = assay: MTT viability assay, HT29; type: cell-based, human; conditions: 72 h, mean±SD, read-out: IC50 [μM] (n = 3) HT29 MTT
Protocol: as §1, §2, §3, §4

MC38 cells [5] = assay: MTT viability assay, MC38; type: cell-based, murine; conditions: 72 h, mean±SD, read-out: IC50 [μM] (n = 3) MC38 MTT
Protocol: as §1, §2, §3, §4

HCT116 cells [6] = assay: Crystal violet (CV) viability assay, HCT116; type: cell-based, human; conditions: 72 h, mean±SD, read-out: IC50 [μM] (n = 3) HCT116 CV
Protocol: as §1, §2, §3, §4

[7] = cited from earlier work
[8] = buffer solutions at pH 1.2 and pH 7.4 and human serum ref 36, 43; cited from earlier work
[9] = in vivo ref 43, 44; cited from earlier work
Hep-G2 = conditions: cited from earlier work
[10] = tested on: MCF7, MiaPaCa-2, KB, HuTu80, L132, B16F10 and Molt4 cancer cells; parameters: method as in doi:10.1007/s00044-012-0309-2; conditions: cited from earlier work
[11] = Hydrolysis stability of the lactam in solution; type: physicochemical; conditions: several pH-levels, acids, bases, temperatures and solvents
Text: To estimate the functionality as a prodrug and the stability of the oxindoles, we investigated the behavior in solution at several pH-levels, with different acids, bases, temperatures and solvents (see Supporting Information). […] The alkaline hydrolysis was successful with CsOH in a degassed 1:3 water-ethanol mixture at [drawing 29] , while acidic hydrolysis happened at [drawing 30] in 40% aqueous sulfuric acid with 2% acetic acid. Upon attempted isolation however, the lactam was re-formed within minutes as observed by [drawing 31] H and ^11B{ [drawing 32] H} NMR spectroscopy (see Supporting Information). […] The reclosing to the oxindole ring might be attributed to an increased nucleophilicity of the amino nitrogen atom stemming from its association to the carborane cluster via a cluster boron atom. This is supported by density functional theory (DFT) calculations (see Supporting Information).

| Compound | IC50 (HT29 cells [1]) | IC50 (HCT116 cells [2]) | effect on cell viability (MC38, HCT116, and HT29) | IC50 (MC38 cells [3]) | %Inh. @ 100 μM (n = 2) COX-2 (human recombinant COX-2) | COX inhibition, in words (human recombinant COX-2) | IC50 (HT29 cells [4]) | IC50 (MC38 cells [5]) | IC50 (HCT116 cells [6]) | IC50 (HT29 cells [1]; Homo sapiens, HT-29) | IC50 (HCT116 cells [2]; Homo sapiens, HCT-116) | IC50 (MC38 cells [3]; Mus musculus, MC-38) | IC50 (HT29 cells [4]; Homo sapiens, HT-29) | IC50 (MC38 cells [5]; Mus musculus, MC-38) | IC50 (HCT116 cells [6]; Homo sapiens, HCT-116) | also measured |
| --- | --- | --- | --- | --- | --- | --- | --- | --- | --- | --- | --- | --- | --- | --- | --- | --- |
| Sodium 1-[2-(7,8-dicarba-nido-undecaborate)]-1,3-dihydro-2H-indolin-2-one [compound 2] | > 100 µM | > 100 µM | no effect on cell viability | > 100 µM | 56% | moderately active COX-inhibitors | > 100 µM | > 100 µM | > 100 µM |  |  |  |  |  |  | IC50 (human recombinant COX-2; absolute IC50, 0.1 to 100 μM in duplicate, 95% CI in brackets): 58.5 µM |
| 1-[9-(1,7-dicarba-closo-dodecaboranyl)]-1,3-dihydro-2H-indolin-2-one [m1] | > 100 µM | > 100 µM | no effect on cell viability | > 100 µM | 19% |  | > 100 µM | > 100 µM | > 100 µM |  |  |  |  |  |  |  |
| O=C1Cc2ccccc2N1c1c(Cl)cccc1Cl [CCF, 1-(2,6-dichlorophenyl)-1,3-dihydro-2H-indolin-2-one, reference compound] |  |  |  |  |  | no inhibition at all |  |  |  | 74.4 ± 4.8 µM | 46.7 ± 2.4 µM | 75.1 ± 3.8 µM | 77.7 ± 5.5 µM | 32.6 ± 2.7 µM | 73.5 ± 3.9 µM | gastrotoxicity [7]: without causing gastrotoxicity; stability towards hydrolysis [8]: High stability towards hydrolysis; in vivo conversion to open-chain diclofenac [9]: hydrolysis of the lactam to form the open-chain diclofenac; IC50 (MC38, HCT116, and HT29; CV): ~74 µM; IC50 (Hep-G2): 24.5 ± 1.11 µM; inhibition at 100 µM (human recombinant COX-2; read-out: %Inh. @ 100 μM (n = 2) COX-2): 5%; effect in initial in vitro tests on cancer cells [10]: no effect |
| O=C(O)Cc1ccccc1Nc1c(Cl)cccc1Cl [DCF, diclofenac] |  |  | no effect on cell viability |  |  |  |  |  |  | > 100 µM | > 100 µM | > 100 µM | > 100 µM | > 100 µM | > 100 µM |  |
| 1-[9-(1,2-dicarba-closo-dodecaboranyl)]-1,3-dihydro-2H-indolin-2-one [o1] | > 100 µM | > 100 µM | no effect on cell viability | > 100 µM | 14% |  | > 100 µM | > 100 µM | > 100 µM |  |  |  |  |  |  |  |
| 1-[2-(1,12-dicarba-closo-dodecaboranyl)]-1,3-dihydro-2H-indolin-2-one [p1] | > 100 µM | > 100 µM | no effect on cell viability | > 100 µM |  |  | > 100 µM | > 100 µM | > 100 µM |  |  |  |  |  |  | stability of the lactam towards hydrolysis [11]: extraordinarily stable towards hydrolysis |
